Measurements published in US20260125382A1, “COMPOUNDS FOR INHIBITING OR DEGRADING CDK2 AND/OR CDK9 AND MEDICINAL USE THEREOF” (KOREA RESEARCH INSTITUTE OF CHEMICAL TECHNOLOGY, priority 2022, published 2026).

Assays:
CDK9 = target: T1, CDK9 (Homo sapiens, UniProt P50750); assay: CDK protein degradation activity (Western blotting), CDK9; format: cell-based; details: MDA-MB-231 cells, 16 hours, Western blot
T1 construct: endogenous in cells; host or cells: MDA-MB-231
Method in brief: (§1)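 MDA-MB-231 cells were treated with compound at final concentrations of 100 nM, 1 μM and 10 μM, or DMSO vehicle, for 16 h. Lysates were resolved by SDS-PAGE and immunoblotted for CDK2, CDK9 and tubulin, with band intensities quantified densitometrically.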

CDK2 = target: T2, CDK2 (Homo sapiens, UniProt P24941); assay: CDK protein degradation activity (Western blotting), CDK2; format: cell-based; details: MDA-MB-231 cells, 16 hours, Western blot
T2 construct: endogenous in cells; host or cells: MDA-MB-231
Method in brief: as §1

T1 sequence (P50750 whole entry): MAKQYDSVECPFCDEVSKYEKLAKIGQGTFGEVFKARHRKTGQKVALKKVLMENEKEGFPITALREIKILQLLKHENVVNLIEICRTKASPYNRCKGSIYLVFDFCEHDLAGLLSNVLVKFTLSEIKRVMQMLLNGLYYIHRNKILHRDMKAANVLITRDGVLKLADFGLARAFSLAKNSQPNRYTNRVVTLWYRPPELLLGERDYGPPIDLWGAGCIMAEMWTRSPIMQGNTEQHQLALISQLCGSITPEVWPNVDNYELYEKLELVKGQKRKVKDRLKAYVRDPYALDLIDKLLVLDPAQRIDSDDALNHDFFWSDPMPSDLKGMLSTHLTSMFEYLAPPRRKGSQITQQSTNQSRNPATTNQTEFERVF

Enzyme degradation CDK9 (% remaining) @ 0.1 μM (CDK9)	Enzyme degradation CDK9 (% remaining) @ 1 μM (CDK9)	Enzyme degradation CDK9 (% remaining) @ 10 μM (CDK9)	Enzyme degradation CDK2 (% remaining) @ 0.1 μM (CDK2)	Enzyme degradation CDK2 (% remaining) @ 1 μM (CDK2)	Enzyme degradation CDK2 (% remaining) @ 10 μM (CDK2)	SMILES
0/0/0%	0/0/0%	0/0/0%	20%	10%	10%	O=C1CC[C@H](N2C(=O)c3cccc(OCC(=O)N4CCC(CN5CCN(c6ccc(Nc7ncnc8c7ncn8[C@H]7C[C@@H](NC(=O)c8c(Cl)cccc8Cl)C7)cc6)CC5)CC4)c3C2=O)C(=O)N1 [Compound 163, 2,6-dichloro-N-((1s,3s)-3-(6-((4-(4-((1-(2-((2-(2,6-dioxopiperidin-3-yl)-1,3-dioxoisoindolin-4-yl)oxy)acetyl)piperidin-4-yl)methyl)piperazin-1-yl)phenyl)amino)-9H-purin-9-yl)cyclobutyl)benzamide]
0/0/0%	0/0/0%	0/0/0%	30/30/30%	30/30/30%	30/30/30%	O=C1CC[C@H](N2C(=O)c3ccc(NCC(=O)N4CCC(CN5CCN(c6ccc(Nc7ncnc8c7ncn8C7CC(NC(=O)c8c(Cl)cccc8Cl)C7)cc6)CC5)CC4)cc3C2=O)C(=O)N1 (stereo partly drawn) [Compound 164, 2,6-dichloro-N-((1s,3s)-3-(6-((4-(4-((1-((2-(2,6-dioxopiperidin-3-yl)-1,3-dioxoisoindolin-5-yl)glycyl)piperidin-4-yl)methyl)piperazin-1-yl)phenyl)amino)-9H-purin-9-yl)cyclobutyl)benzamide]
0/0/0%	0/0/0%	0/0/0%	10/10/10%	10/10/10%	10/10/10%	O=C1CC[C@H](N2C(=O)c3cccc(NCC(=O)N4CCC(CN5CCN(c6ccc(Nc7ncnc8c7ncn8[C@H]7C[C@@H](NC(=O)c8c(Cl)cccc8Cl)C7)cc6)CC5)CC4)c3C2=O)C(=O)N1 [Compound 165, 2,6-dichloro-N-((1s,3s)-3-(6-((4-(4-((1-((2-(2,6-dioxopiperidin-3-yl)-1,3-dioxoisoindolin-4-yl)glycyl)piperidin-4-yl)methyl)piperazin-1-yl)phenyl)amino)-9H-purin-9-yl)cyclobutyl)benzamide]
0/0/0%	0/0/0%	0/0/0%	10%	20%	20%	O=C1CC[C@H](N2C(=O)c3ccc(N4CCC(CN5CCN(c6ccc(Nc7ncnc8c7ncn8C7CC(NC(=O)c8c(Cl)cccc8Cl)C7)cc6)CC5)CC4)cc3C2=O)C(=O)N1 (stereo partly drawn) [Compound 166, 2,6-dichloro-N-((1s,3s)-3-(6-((4-(4-((1-(2-(2,6-dioxopiperidin-3-yl)-1,3-dioxoisoindolin-5-yl)piperidin-4-yl)methyl)piperazin-1-yl)phenyl)amino)-9H-purin-9-yl)cyclobutyl)benzamide]
0/0/0%	0/0/0%	0/0/0%	30%	40%	30%	O=C1CC[C@H](N2C(=O)c3cccc(N4CCC(CN5CCN(c6ccc(Nc7ncnc8c7ncn8[C@H]7C[C@@H](NC(=O)c8c(Cl)cccc8Cl)C7)cc6)CC5)CC4)c3C2=O)C(=O)N1 [Compound 167, 2,6-dichloro-N-((1s,3s)-3-(6-((4-(4-((1-(2-(2,6-dioxopiperidin-3-yl)-1,3-dioxoisoindolin-4-yl)piperidin-4-yl)methyl)piperazin-1-yl)phenyl)amino)-9H-purin-9-yl)cyclobutyl)benzamide]
80%	40%	10%	50%	10%	10%	O=C1CC[C@H](N2C(=O)c3cccc(OCC(=O)N4CCC(CN5CCC(CNc6ncnc7c6ncn7C6CC(NC(=O)c7c(Cl)cccc7Cl)C6)CC5)CC4)c3C2=O)C(=O)N1 (stereo partly drawn) [Compound 168, 2,6-dichloro-N-((1s,3s)-3-(6-(((1-((1-(2-((2-(2,6-dioxopiperidin-3-yl)-1,3-dioxoisoindolin-4-yl)oxy)acetyl)piperidin-4-yl)methyl)piperidin-4-yl)methyl)amino)-9H-purin-9-yl)cyclobutyl)benzamide]
10%	0%	0%	80%	70%	70%	O=C1CC[C@H](N2C(=O)c3ccc(OCC(=O)N4CCC(CN5CCC(CNc6ncnc7c6ncn7C6CC(NC(=O)c7c(Cl)cccc7Cl)C6)CC5)CC4)cc3C2=O)C(=O)N1 (stereo partly drawn) [Compound 169, 2,6-dichloro-N-((1s,3s)-3-(6-(((1-((1-(2-((2-(2,6-dioxopiperidin-3-yl)-1,3-dioxoisoindolin-5-yl)oxy)acetyl)piperidin-4-yl)methyl)piperidin-4-yl)methyl)amino)-9H-purin-9-yl)cyclobutyl)benzamide]
10%	0%	10%	0%	10%	20%	O=C1CC[C@H](N2C(=O)c3cccc(NCC(=O)N4CCC(CN5CCC(CNc6ncnc7c6ncn7[C@H]6C[C@@H](NC(=O)c7c(Cl)cccc7Cl)C6)CC5)CC4)c3C2=O)C(=O)N1 [Compound 170, 2,6-dichloro-N-((1s,3s)-3-(6-(((1-((1-((2-(2,6-dioxopiperidin-3-yl)-1,3-dioxoisoindolin-4-yl)glycyl)piperidin-4-yl)methyl)piperidin-4-yl)methyl)amino)-9H-purin-9-yl)cyclobutyl)benzamide]
0/0/0%	0/0/0%	0/0/0%	20%	10%	10%	O=C1CCC(N2C(=O)c3ccc(NCC(=O)N4CCC(CN5CCC(CNc6ncnc7c6ncn7[C@H]6C[C@@H](NC(=O)c7c(Cl)cccc7Cl)C6)CC5)CC4)cc3C2=O)C(=O)N1 (stereo partly drawn) [Compound 171, 2,6-dichloro-N-((1s,3s)-3-(6-(((1-((1-((2-(2,6-dioxopiperidin-3-yl)-1,3-dioxoisoindolin-5-yl)glycyl)piperidin-4-yl)methyl)piperidin-4-yl)methyl)amino)-9H-purin-9-yl)cyclobutyl)benzamide]
50%	0%	0%	10%	20%	20%	O=C1CC[C@H](N2C(=O)c3cccc(N4CCC(CN5CCC(CNc6ncnc7c6ncn7C6CC(NC(=O)c7c(Cl)cccc7Cl)C6)CC5)CC4)c3C2=O)C(=O)N1 (stereo partly drawn) [Compound 172, 2,6-dichloro-N-((1s,3s)-3-(6-(((1-((1-(2-(2,6-dioxopiperidin-3-yl)-1,3-dioxoisoindolin-4-yl)piperidin-4-yl)methyl)piperidin-4-yl)methyl)amino)-9H-purin-9-yl)cyclobutyl)benzamide]
50%	20%	0%	30%	30%	50%	O=C1CC[C@H](N2C(=O)c3ccc(N4CCC(CN5CCC(CNc6ncnc7c6ncn7[C@H]6C[C@@H](NC(=O)c7c(Cl)cccc7Cl)C6)CC5)CC4)cc3C2=O)C(=O)N1 [Compound 173, 2,6-dichloro-N-((1s,3s)-3-(6-(((1-((1-(2-(2,6-dioxopiperidin-3-yl)-1,3-dioxoisoindolin-5-yl)piperidin-4-yl)methyl)piperidin-4-yl)methyl)amino)-9H-purin-9-yl)cyclobutyl)benzamide]
80%	30%	0%	100%	80%	30%	O=C1CC[C@H](N2C(=O)c3ccc(OCC(=O)N4CCC(CN5CCN(c6ccc(Nc7ncnc8c7ncn8C7CC(NC(=O)Cc8ccccc8)C7)cc6)CC5)CC4)cc3C2=O)C(=O)N1 (stereo partly drawn) [Compound 175, N-((1s,3s)-3-(6-((4-(4-((1-(2-((2-(2,6-dioxopiperidin-3-yl)-1,3-dioxoisoindolin-5-yl)oxy)acetyl)piperidin-4-yl)methyl)piperazin-1-yl)phenyl)amino)-9H-purin-9-yl)cyclobutyl)-2-phenylacetamide]
30%	0%	0%	50%	10%	10%	O=C1CC[C@H](N2C(=O)c3ccc(NCC(=O)N4CCC(CN5CCN(c6ccc(Nc7ncnc8c7ncn8C7CC(NC(=O)Cc8ccccc8)C7)cc6)CC5)CC4)cc3C2=O)C(=O)N1 (stereo partly drawn) [Compound 177, N-((1s,3s)-3-(6-((4-(4-((1-((2-(2,6-dioxopiperidin-3-yl)-1,3-dioxoisoindolin-5-yl)glycyl)piperidin-4-yl)methyl)piperazin-1-yl)phenyl)amino)-9H-purin-9-yl)cyclobutyl)-2-phenylacetamide]
